How the values were obtained:
5-HT transporter (h) = target: T1, 5-HT transporter (h) (Homo sapiens, UniProt P31645); experiment: Receptor binding screen, [^3H]imipramine; details: 10 uM Concentration of Compound I-1-Z; read-out: Mean Value, percent inhibition of control specific binding: 5-HT transporter (h)
T1 construct: expressed in transfected cells; host or cells: CHO cells

K^+V channel = experiment: Receptor binding screen, [^125I]α-dendrotoxin; parameters: species or system rat; details: 10 uM Concentration of Compound I-1-Z
5-HT5A (h) = target: T2, 5-HT5A (h) (Homo sapiens, UniProt P47898); experiment: Receptor binding screen, [^3H]LSD; details: 10 uM Concentration of Compound I-1-Z; read-out: Mean Value, percent inhibition of control specific binding: 5-HT5A (h)
T2 construct: expressed in transfected cells; host or cells: CHO cells
T2 sequence (P47898 whole entry): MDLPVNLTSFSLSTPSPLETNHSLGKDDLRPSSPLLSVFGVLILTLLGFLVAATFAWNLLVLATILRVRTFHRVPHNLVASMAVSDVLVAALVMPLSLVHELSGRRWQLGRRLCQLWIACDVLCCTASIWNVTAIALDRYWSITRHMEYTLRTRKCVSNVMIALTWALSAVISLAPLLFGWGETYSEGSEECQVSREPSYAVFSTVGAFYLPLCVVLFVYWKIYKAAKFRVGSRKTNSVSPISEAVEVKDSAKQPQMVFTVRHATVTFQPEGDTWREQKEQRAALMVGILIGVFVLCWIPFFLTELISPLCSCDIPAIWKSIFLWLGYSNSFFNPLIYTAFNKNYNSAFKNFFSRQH

H2 (h) = target: T3, H2 (h) (Homo sapiens, UniProt P25021); experiment: Receptor binding screen, [^125I]APT; details: 10 uM Concentration of Compound I-1-Z; read-out: Mean Value, percent inhibition of control specific binding: H2 (h)
T3 construct: expressed in transfected cells; host or cells: CHO cells
T3 sequence (P25021 whole entry): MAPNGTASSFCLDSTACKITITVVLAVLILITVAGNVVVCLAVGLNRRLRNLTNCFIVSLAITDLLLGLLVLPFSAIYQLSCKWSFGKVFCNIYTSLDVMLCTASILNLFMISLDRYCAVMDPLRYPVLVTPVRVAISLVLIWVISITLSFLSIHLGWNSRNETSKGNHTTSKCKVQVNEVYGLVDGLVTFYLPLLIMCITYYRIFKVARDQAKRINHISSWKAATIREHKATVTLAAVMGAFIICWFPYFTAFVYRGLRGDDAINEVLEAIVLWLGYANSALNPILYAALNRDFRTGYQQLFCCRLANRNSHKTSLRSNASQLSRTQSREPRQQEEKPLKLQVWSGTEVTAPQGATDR

B2 (h) = target: T4, B2 (h) (Homo sapiens, UniProt P30411); experiment: Receptor binding screen, [^3H]bradykinin; details: 10 uM Concentration of Compound I-1-Z; read-out: Mean Value, percent inhibition of control specific binding: B2 (h)
T4 construct: expressed in transfected cells; host or cells: CHO cells
T4 sequence (P30411 whole entry): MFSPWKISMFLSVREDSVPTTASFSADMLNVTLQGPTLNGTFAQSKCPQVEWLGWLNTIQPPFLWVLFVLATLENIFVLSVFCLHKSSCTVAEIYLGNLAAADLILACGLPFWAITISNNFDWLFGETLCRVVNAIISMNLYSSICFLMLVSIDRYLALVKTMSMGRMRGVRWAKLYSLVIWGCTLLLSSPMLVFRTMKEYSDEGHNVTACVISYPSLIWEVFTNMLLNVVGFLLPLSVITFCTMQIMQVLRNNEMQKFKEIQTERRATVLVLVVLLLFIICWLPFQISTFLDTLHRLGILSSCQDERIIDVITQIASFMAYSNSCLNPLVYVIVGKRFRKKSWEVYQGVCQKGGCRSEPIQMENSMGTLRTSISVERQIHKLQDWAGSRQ

NK2 (h) = target: T5, NK2 (h) (Homo sapiens, UniProt P21452); experiment: Receptor binding screen, [^125I]NKA; details: 10 uM Concentration of Compound I-1-Z; read-out: Mean Value, percent inhibition of control specific binding: NK2 (h)
T5 construct: expressed in transfected cells; host or cells: CHO cells
T5 sequence (P21452 whole entry): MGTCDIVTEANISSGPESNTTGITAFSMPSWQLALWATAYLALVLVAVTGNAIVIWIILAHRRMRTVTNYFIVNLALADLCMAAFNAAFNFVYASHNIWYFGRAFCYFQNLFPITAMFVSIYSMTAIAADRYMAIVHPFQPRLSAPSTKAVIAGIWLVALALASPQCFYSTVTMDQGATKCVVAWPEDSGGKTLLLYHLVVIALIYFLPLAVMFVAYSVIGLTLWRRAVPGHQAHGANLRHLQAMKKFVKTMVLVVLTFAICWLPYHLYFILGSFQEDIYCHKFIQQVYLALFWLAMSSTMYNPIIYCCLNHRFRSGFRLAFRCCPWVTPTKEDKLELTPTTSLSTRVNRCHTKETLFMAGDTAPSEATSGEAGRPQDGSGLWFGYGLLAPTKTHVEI

CCKA (h) (CCK1) = target: T6, CCKA (h) (CCK1) (Homo sapiens, UniProt P32238); experiment: Receptor binding screen, [^125I]CCK-8; details: 10 uM Concentration of Compound I-1-Z; read-out: Mean Value, percent inhibition of control specific binding: CCKA (h) (CCK1)
T6 construct: expressed in transfected cells; host or cells: CHO cells
T6 sequence (P32238 whole entry): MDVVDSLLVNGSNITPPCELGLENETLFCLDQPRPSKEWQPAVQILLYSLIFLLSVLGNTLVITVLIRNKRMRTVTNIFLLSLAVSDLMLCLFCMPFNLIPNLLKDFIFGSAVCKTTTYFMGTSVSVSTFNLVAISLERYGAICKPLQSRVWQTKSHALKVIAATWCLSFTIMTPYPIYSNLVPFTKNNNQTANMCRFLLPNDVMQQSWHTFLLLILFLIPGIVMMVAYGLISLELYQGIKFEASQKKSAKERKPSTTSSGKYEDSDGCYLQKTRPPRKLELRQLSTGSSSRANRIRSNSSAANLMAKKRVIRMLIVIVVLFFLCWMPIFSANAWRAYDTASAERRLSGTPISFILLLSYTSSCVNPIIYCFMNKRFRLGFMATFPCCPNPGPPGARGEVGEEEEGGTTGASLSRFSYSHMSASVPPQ

AT1 (h) = target: T7, AT1 (h) (Homo sapiens, UniProt P30556); experiment: Receptor binding screen, [^125I][Sar^1,Ile^8]-ATII; details: 10 uM Concentration of Compound I-1-Z; read-out: Mean Value, percent inhibition of control specific binding: AT1 (h)
T7 construct: expressed in transfected cells; host or cells: CHO cells
T7 sequence (P30556 whole entry): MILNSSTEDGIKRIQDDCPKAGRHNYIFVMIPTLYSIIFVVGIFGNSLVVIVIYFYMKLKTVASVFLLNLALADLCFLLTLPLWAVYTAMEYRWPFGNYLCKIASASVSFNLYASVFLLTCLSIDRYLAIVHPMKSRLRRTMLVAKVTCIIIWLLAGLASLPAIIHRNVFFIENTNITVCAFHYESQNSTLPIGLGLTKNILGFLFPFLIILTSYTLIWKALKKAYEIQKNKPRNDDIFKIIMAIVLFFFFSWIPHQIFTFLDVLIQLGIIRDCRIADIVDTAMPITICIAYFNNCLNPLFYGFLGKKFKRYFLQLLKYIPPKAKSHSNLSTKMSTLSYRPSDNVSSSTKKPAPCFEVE

TXA2/PGH2 (h) (TP) = target: T8, TXA2/PGH2 (h) (TP) (Homo sapiens, UniProt P21731); experiment: Receptor binding screen, [^3H]SQ 29548, human platelets; details: 10 uM Concentration of Compound I-1-Z; read-out: Mean Value, percent inhibition of control specific binding: TXA2/PGH2 (h) (TP)
T8 construct: human platelets; endogenous in cells; host or cells: human platelets
T8 sequence (P21731 whole entry): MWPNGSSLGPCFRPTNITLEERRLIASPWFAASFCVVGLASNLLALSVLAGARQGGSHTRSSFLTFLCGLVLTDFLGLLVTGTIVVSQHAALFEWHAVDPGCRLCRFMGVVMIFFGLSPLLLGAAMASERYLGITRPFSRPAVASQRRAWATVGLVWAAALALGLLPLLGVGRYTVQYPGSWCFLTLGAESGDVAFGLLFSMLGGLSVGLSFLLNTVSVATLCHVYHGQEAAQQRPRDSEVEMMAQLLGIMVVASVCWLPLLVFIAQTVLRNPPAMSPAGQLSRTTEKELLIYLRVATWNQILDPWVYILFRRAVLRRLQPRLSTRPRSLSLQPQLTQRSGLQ

ETA (h) = target: T9, ETA (h) (Homo sapiens, UniProt P25101); experiment: Receptor binding screen, [^125I]endothelin-1; details: 10 uM Concentration of Compound I-1-Z; read-out: Mean Value, percent inhibition of control specific binding: ETA (h)
T9 construct: expressed in transfected cells; host or cells: CHO cells
T9 sequence (P25101 21-427): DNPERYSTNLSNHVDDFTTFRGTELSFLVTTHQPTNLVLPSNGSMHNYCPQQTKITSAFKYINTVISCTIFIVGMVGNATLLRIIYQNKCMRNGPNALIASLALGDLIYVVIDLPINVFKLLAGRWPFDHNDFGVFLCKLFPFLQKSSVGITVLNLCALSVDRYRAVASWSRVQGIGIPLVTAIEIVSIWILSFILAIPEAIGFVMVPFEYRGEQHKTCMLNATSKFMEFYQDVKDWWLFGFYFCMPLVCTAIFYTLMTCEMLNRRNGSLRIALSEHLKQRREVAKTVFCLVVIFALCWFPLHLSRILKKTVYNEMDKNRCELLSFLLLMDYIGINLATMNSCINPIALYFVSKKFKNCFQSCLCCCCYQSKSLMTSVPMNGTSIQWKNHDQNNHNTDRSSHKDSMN

ETB (h) = target: T10, ETB (h) (Homo sapiens, UniProt P24530); experiment: Receptor binding screen, [^125I]endothelin-1; details: 10 uM Concentration of Compound I-1-Z; read-out: Mean Value, percent inhibition of control specific binding: ETB (h)
T10 construct: expressed in transfected cells; host or cells: CHO cells
T10 sequence (P24530 27-442): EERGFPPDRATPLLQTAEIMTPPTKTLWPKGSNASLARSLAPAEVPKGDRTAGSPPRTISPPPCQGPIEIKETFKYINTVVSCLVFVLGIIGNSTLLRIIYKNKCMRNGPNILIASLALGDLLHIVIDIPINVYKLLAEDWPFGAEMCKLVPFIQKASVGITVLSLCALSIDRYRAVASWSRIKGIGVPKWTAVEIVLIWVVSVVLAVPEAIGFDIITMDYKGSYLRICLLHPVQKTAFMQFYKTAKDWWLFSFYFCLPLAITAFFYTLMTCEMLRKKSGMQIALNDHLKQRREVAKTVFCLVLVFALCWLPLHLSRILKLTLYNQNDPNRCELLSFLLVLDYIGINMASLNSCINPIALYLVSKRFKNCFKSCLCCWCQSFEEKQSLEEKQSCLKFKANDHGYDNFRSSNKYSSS

[1] = tested on: oxazolone-induced colitis; experiment: Oxazolone-induced colitis; type: in vivo, SJL/J male mice; details: 30 mg/kg intraperitoneally, day 0 until day 12; FIG. 2A, 2B
Description: Oxazolone-induced colitis is a TH2-mediated process that closely resembles ulcerative colitis and is responsive to anti-IL4 therapy ((Strober W. et al (2002) Annu. Rev. Immunol. 20: 495, Boirivant M. et al. (1998) J. Ex. Med. 188: 1929). Oxazolone colitis is induced as described (Fuss I. J. et al. (2002) J. Immunol. 168: 900). Briefly, mice are pre-sensitized by epicutaneous application of 1% oxazolone (4-ethoxymethylene-2-phenyl-2oxazolin-5-one, Sigma) in 100% EtOH (200 μL) on day 0, followed by intrarectal administration of 0.75% oxazolone in 50% EtOH (100 μL) to anesthetized SJL/J male mice on day 5 through a 3.5 F catheter inserted 4 cm proximal to the anal verge. Mice are divided in two treatment groups and injected i.p. twice a day with either PBS or a compound of the invention. Injections are initiated at day 0 and are continued through day 12. Disease progression is evaluated by monitoring body weight and survival.
A study was carried out using the protocol described above for oxazolone-induced colitis. […] Disease progression was evaluated until day 15 (10 days after intrarectal administration) by monitoring survival rates and body weight. When following the above-described protocol, disease severity as measured by body weight drop was maximal at day 11 (6 days after intrarectal challenge), although animals started dying on day 9.

T1 sequence (P31645 whole entry): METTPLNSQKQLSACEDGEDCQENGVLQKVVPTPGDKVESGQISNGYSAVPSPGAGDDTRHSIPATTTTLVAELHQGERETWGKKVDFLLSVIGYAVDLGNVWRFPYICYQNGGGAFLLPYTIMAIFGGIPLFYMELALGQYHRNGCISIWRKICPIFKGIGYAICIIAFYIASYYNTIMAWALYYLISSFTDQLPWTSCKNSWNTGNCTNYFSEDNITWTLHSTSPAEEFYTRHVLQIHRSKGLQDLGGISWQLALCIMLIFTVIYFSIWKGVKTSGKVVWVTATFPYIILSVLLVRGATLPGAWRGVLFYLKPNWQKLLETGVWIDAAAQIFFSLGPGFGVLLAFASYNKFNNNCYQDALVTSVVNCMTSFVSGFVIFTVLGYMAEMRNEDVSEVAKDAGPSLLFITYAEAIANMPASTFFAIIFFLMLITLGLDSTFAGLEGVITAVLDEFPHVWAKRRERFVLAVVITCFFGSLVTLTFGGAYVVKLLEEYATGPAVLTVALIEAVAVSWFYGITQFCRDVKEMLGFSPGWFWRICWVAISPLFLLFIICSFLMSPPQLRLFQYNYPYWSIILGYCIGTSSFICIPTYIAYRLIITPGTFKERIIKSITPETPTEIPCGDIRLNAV

SMILES	inhibition at 10 µM (5-HT transporter (h))	Mean Value, percent inhibition of control specific binding: K^+V channel (K^+V channel)	inhibition at 10 µM (5-HT5A (h))	inhibition at 10 µM (H2 (h))	inhibition at 10 µM (B2 (h))	inhibition at 10 µM (NK2 (h))	inhibition at 10 µM (CCKA (h) (CCK1))	inhibition at 10 µM (AT1 (h))	inhibition at 10 µM (TXA2/PGH2 (h) (TP))	inhibition at 10 µM (ETA (h))	inhibition at 10 µM (ETB (h))	survival rates and body weight loss compared with the vehicle group [1]
COc1ccc(C/C(=C/F)CN)cc1.Cl [Compound I-1-Z, (Z)-3-Fluoro-2-(4-methoxybenzyl)-allylamine hydrochloride]	47%	−5%	-3%	16%	1%	3%	-13%	10%	4%	8%	-5%	
NC/C(F)=C\Cc1cc(F)cc(C(F)(F)F)c1 [II-1-E, (E)-2-Fluoro-4-(3-fluoro-5-trifluoromethylphenyl)-but-2-enylamine]												improved survival rates and body weight loss
